{"source": "patent US20170239289A1", "about": "“TREATMENT OF INFLAMMATION, RESPIRATORY TRACT INFECTIONS AND CYSTIC FIBROSIS” (Advanced Inhalation Therapies (AIT) Ltd., priority 2014, published 2017)", "key": {"[1]": {"test_system": "human subjects diagnosed with cystic fibrosis", "experiment": "Example 4: lung function indices by spirometry", "assay_type": "in vivo", "protocol": "(§1) In addition to their standard care, subjects were administered three 30-minute inhalations per day of 160 ppm NO (with O2/air) for 10 working days (i.e., 5 days on treatment, 2 days off treatment, 5 days on treatment, for a total of 10 treatment days and 30 inhalations).\n(§2) Secondary Endpoints—Efficacy: • Comparison of FEV1 improvement before and after NO treatment Observational Endpoints: • To determine the reduction in bacterial and fungal sputum load during each week of NO treatment compared to bacterial sputum load before NO treatment • Assess the improvement of lung function indices during and after NO intermittent inhalation treatment as determined by spirometry (i.e., FVC, FEV1, FEV1/FVC, forced expiratory flow 25% to 75% (FEF 25-75)) • Evaluate C-reactive protein (CRP) levels over time • Number of subjects with study drug related bleeding at any time point\nThe Signed rank test for two means was applied for analyzing changes from baseline in continuous parameters: • FEV1% • Specific bacterial colonization (i.e., S. aureus, P. aeruginosa)"}, "[2]": {"test_system": "C-reactive protein (CRP)", "experiment": "Example 4: CRP levels over time", "assay_type": "in vivo, human", "conditions": "three subjects with systemic inflammation (CRP greater than 5 mg/L) on Day 1", "protocol": "as §1, §2"}, "[3]": {"test_system": "human subjects diagnosed with, or suffering from CF", "experiment": "Example 1: open-label Phase 2 CF study, 160 ppm NO 30 min 3x daily, 5 days/week, 2 weeks; safety monitoring", "assay_type": "in vivo", "protocol": "NO was administered via inhalation to nine clinically stable human subjects diagnosed with, or suffering from CF from two medical centers. Patients received three daily 30-minute treatments of 160 ppm NO with at least 3.5 hours between treatments, for 5 days per week over a two-weeks time period.\nSafety parameters, including NO and nitrogen dioxide (NO2 via NO2^−/NO3^−) concentrations, inhaled fraction of inspired oxygen (FiO2), methemoglobin level (SpMet, or “% MetHb”), and oxyhemoglobin (oxygen) saturation (SpO2 or SaO2), were continuously monitored using a noninvasive pulse-oximetry device RAD-57™ or RAD-87™ by Masimo Irvine, Calif. These devices also monitor Perfusion Index (PI), Respiration Rate (RRa), Total Hemoglobin (SpHb), Carboxyhemoglobin (SpCO), Oxygen Content (SpOC) and Pleth Variability Index (PVI®). Vital signs, including blood pressure, pulse, and respiratory rate were also closely monitored."}, "[4]": {"test_system": "human subjects diagnosed with acute bronchiolitis", "experiment": "Example 3: randomized bronchiolitis study, infants 2-12 months; 160 ppm NO 30 min 5x daily up to 5 days plus O2 vs O2 alone; safety and tolerability", "assay_type": "in vivo", "excerpt": "Eligible subjects were randomized (1:1) to receive intermittent NO and standard treatment with O2 (hereafter referred to as NO treatment) or standard treatment with O2 (hereafter referred to as standard treatment) alone for a treatment period of up to 5 days. During treatment, MetHb and O2 saturation levels were continuously monitored using a dedicated monitor.\nIn addition to standard supportive O2 treatment which was initiated prior to randomization, subjects in the NO group were given five 30 minute inhalations per day of 160 ppm NO, at intervals of 3 to 4 hours, until subject improvement led to a physician decision of fit to discharge, to a maximum of 25 inhalations over 5 consecutive days. Inhalations were administered via hospital face masks (Hospiltak, Unomedical Inc).\nAll subjects in the control group were managed with standard supportive O2 treatment in the same way as the active treatment group, but without actual NO administration.\nMethemoglobin and O2 saturation levels were also continuously monitored using a dedicated monitor. In the event of MetHb>5% or O2 saturation less than 89%, treatment was temporarily discontinued, and measurement repeated 30 minutes later. If value(s) had returned to within the safety threshold, the next inhalation was started according to protocol. In any case of a second episode of MeHb greater than 5%, study treatment was to be permanently discontinued.\nPrimary Endpoints—Safety and Tolerability: • Safety: • Determine the MetHb percentage associated with inhaled NO • Determine AEs associated with inhaled NO • Tolerability: • Proportion of subjects (%) who prematurely discontinued the study or study treatment for any reason • Proportion of subjects (%) who prematurely discontinued the study treatment due to AEs"}, "[5]": {"conditions": "Follow-up 2 (2 weeks after Day 10), n=9"}}, "note": "“Also recorded” adds a separate entry of the source."}
{"smiles": "[N]=O", "note": "[NO, nitric oxide]", "values": [{"measurement": "FEF 25-75% Absolute, Mean", "setting": "[1]; Day 1, n=9", "value": 30.000, "unit": "%"}, {"measurement": "FEF 25-75% Absolute, Median", "setting": "[1]; Day 1, n=9", "value": 27.000, "unit": "%"}, {"measurement": "FEF 25-75 Absolute, Mean", "setting": "[1]; Day 1, n=9", "value": 1.151, "unit": "L/s"}, {"measurement": "FEF 25-75 Absolute, Median", "setting": "[1]; Day 1, n=9", "value": 1.090, "unit": "L/s"}, {"measurement": "FEV1/FVC, Mean", "setting": "[1]; Day 1, n=9", "value": 68.778, "unit": "%"}, {"measurement": "FEV1/FVC, Median", "setting": "[1]; Day 1, n=9", "value": 69.000, "unit": "%"}, {"measurement": "FEV1 Absolute, Mean", "setting": "[1]; Day 1, n=9", "value": 1.871, "unit": "L"}, {"measurement": "FEV1 Absolute, Median", "setting": "[1]; Day 1, n=9", "value": 1.700, "unit": "L"}, {"measurement": "FEV1 Predicted, Mean", "setting": "[1]; Day 1, n=9", "value": 62.222, "unit": "%"}, {"measurement": "FEV1 Predicted, Median", "setting": "[1]; Day 1, n=9", "value": 64.000, "unit": "%"}, {"measurement": "FVC Absolute, Mean", "setting": "[1]; Day 1, n=9", "value": 2.756, "unit": "L"}, {"measurement": "FVC Absolute, Median", "setting": "[1]; Day 1, n=9", "value": 2.360, "unit": "L"}, {"measurement": "FVC Predicted, Mean", "setting": "[1]; Day 1, n=9", "value": 79.889, "unit": "%"}, {"measurement": "FVC Predicted, Median", "setting": "[1]; Day 1, n=9", "value": 90.000, "unit": "%"}, {"measurement": "FEF 25-75% Absolute, Mean", "setting": "[1]; Day 10, n=9", "value": 28.111, "unit": "%"}, {"measurement": "FEF 25-75% Absolute, Median", "setting": "[1]; Day 10, n=9", "value": 22.000, "unit": "%"}, {"measurement": "FEF 25-75 Absolute, Mean", "setting": "[1]; Day 10, n=9", "value": 1.090, "unit": "L/s"}, {"measurement": "FEF 25-75 Absolute, Median", "setting": "[1]; Day 10, n=9", "value": 0.880, "unit": "L/s"}, {"measurement": "FEV1/FVC, Mean", "setting": "[1]; Day 10, n=9", "value": 65.111, "unit": "%"}, {"measurement": "FEV1/FVC, Median", "setting": "[1]; Day 10, n=9", "value": 66.000, "unit": "%"}, {"measurement": "FEV1 Absolute, Mean", "setting": "[1]; Day 10, n=9", "value": 1.833, "unit": "L"}, {"measurement": "FEV1 Absolute, Median", "setting": "[1]; Day 10, n=9", "value": 1.610, "unit": "L"}, {"measurement": "FEV1 Predicted, Mean", "setting": "[1]; Day 10, n=9", "value": 60.444, "unit": "%"}, {"measurement": "FEV1 Predicted, Median", "setting": "[1]; Day 10, n=9", "value": 59.000, "unit": "%"}, {"measurement": "FVC Absolute, Mean", "setting": "[1]; Day 10, n=9", "value": 2.759, "unit": "L"}, {"measurement": "FVC Absolute, Median", "setting": "[1]; Day 10, n=9", "value": 2.340, "unit": "L"}, {"measurement": "FVC Predicted, Mean", "setting": "[1]; Day 10, n=9", "value": 79.556, "unit": "%"}, {"measurement": "FVC Predicted, Median", "setting": "[1]; Day 10, n=9", "value": 84.000, "unit": "%"}, {"measurement": "FEF 25-75% Absolute, Mean", "setting": "[1]; [5]", "value": 29.667, "unit": "%"}, {"measurement": "FEF 25-75% Absolute, Median", "setting": "[1]; [5]", "value": 23.000, "unit": "%"}, {"measurement": "FEF 25-75 Absolute, Mean", "setting": "[1]; [5]", "value": 1.118, "unit": "L/s"}, {"measurement": "FEF 25-75 Absolute, Median", "setting": "[1]; [5]", "value": 0.910, "unit": "L/s"}, {"measurement": "FEV1/FVC, Mean", "setting": "[1]; [5]", "value": 66.000, "unit": "%"}, {"measurement": "FEV1/FVC, Median", "setting": "[1]; [5]", "value": 65.000, "unit": "%"}, {"measurement": "FEV1 Absolute, Mean", "setting": "[1]; [5]", "value": 1.852, "unit": "L"}, {"measurement": "FEV1 Absolute, Median", "setting": "[1]; [5]", "value": 1.630, "unit": "L"}, {"measurement": "FEV1 Predicted, Mean", "setting": "[1]; [5]", "value": 62.889, "unit": "%"}, {"measurement": "FEV1 Predicted, Median", "setting": "[1]; [5]", "value": 60.000, "unit": "%"}, {"measurement": "FVC Absolute, Mean", "setting": "[1]; [5]", "value": 2.786, "unit": "L"}, {"measurement": "FVC Absolute, Median", "setting": "[1]; [5]", "value": 2.390, "unit": "L"}, {"measurement": "FVC Predicted, Mean", "setting": "[1]; [5]", "value": 81.889, "unit": "%"}, {"measurement": "FVC Predicted, Median", "setting": "[1]; [5]", "value": 85.000, "unit": "%"}, {"measurement": "mean (SD) FEV1 change", "setting": "[1]; from Day 1 to Day 10, N=9, p=0.992", "value": "−0.11", "unit": "%"}, {"measurement": "Lung function indices over time", "setting": "[1]; throughout the study", "value": "no clinically significant changes"}, {"measurement": "CRP levels from Day 1 to Day 10", "setting": "[2]", "value": "decreased"}, {"measurement": "Average MetHb levels post treatment (mean±SD)", "setting": "[3]; 9 subjects, 10 days of treatment", "value": 2.4, "unit": "%"}, {"measurement": "Oxygen saturation post treatment", "setting": "[3]; all 9 subjects", "value": "more than 92%"}, {"measurement": "MetHb levels throughout the trial (safety limit)", "setting": "[3]; all subjects", "value": "< 5", "unit": "%"}, {"measurement": "Changes in vital signs", "setting": "[3]; during the study", "value": "no clinically significant changes in vital signs"}, {"measurement": "Serious adverse events", "setting": "[3]; during the study", "value": "No serious adverse events"}, {"measurement": "Time for MetHb to approach pre-treatment levels", "setting": "[4]; after end of 30 min treatment", "value": "approximately 3 hours"}, {"measurement": "Completed entire treatment and study duration, % of subjects", "setting": "[4]; all randomized", "value": 90.5, "unit": "%"}, {"measurement": "Early discontinuation of study", "setting": "[4]; all randomized", "value": "(0.0%)"}, {"measurement": "Early discontinuation of study, withdrawal of consent", "setting": "[4]; all randomized", "value": "(0.0%)"}, {"measurement": "Early discontinuation of treatment due to AE", "setting": "[4]; all randomized", "value": "(4.8%)^(1)"}, {"measurement": "Early discontinuation of treatment due to SAE", "setting": "[4]; all randomized", "value": "(0.0%)"}, {"measurement": "Early discontinuation of treatment only", "setting": "[4]; all randomized", "value": "(9.5%)"}, {"measurement": "Early discontinuation of treatment, Physician/Investigator decision", "setting": "[4]; all randomized", "value": "(4.8%)^(3)"}, {"measurement": "Subjects that discontinued study treatment or discontinued the study", "setting": "[4]; all randomized", "value": "(9.5%)"}, {"measurement": "Completed entire treatment and study duration, % of subjects", "setting": "[4]; all randomized, listed as NO and Standard Treatment (O2)", "value": "(90.5%)"}, {"measurement": "Subjects with any MetHb measurement greater than 5%", "setting": "[4]; during the study treatment period", "value": 28.6, "unit": "%"}, {"measurement": "Serious adverse events reported by", "setting": "[4]; human, in vivo, 160 ppm", "value": 4, "unit": "subjects"}, {"measurement": "Subjects reporting at least 1 AE", "setting": "[4]; human, in vivo, 160 ppm", "value": 47.6, "unit": "%"}, {"measurement": "Deaths during the study", "setting": "[4]; in vivo", "value": "no deaths"}, {"measurement": "maximum MetHb", "setting": "[4]; one subject (Subject 44)", "value": 5.6, "unit": "%"}, {"measurement": "Cumulative effect on MetHb levels", "setting": "[4]; over the study treatment period", "value": "no “cumulative” effect; also recorded: no cumulative effect"}]}
